For series [1] the following is noted: isoelectric point; cited from earlier work.
A short description of series [2]: Zeta potential determination (electrophoretic light scattering, Malvern Zetasizer Nano ZSP). To be noted: particles without surface treatment agent, suspension in water, 25° C. Type of series: physicochemical. As to the method: Zeta potential can be determined from electrophoretic mobility using the Smoluchowski calculation. The electrophoretic mobility value can be determined at 25° C. by electrophoretic light scattering (ELS), e.g. using a Malvern Zetasizer Nano ZSP system. Such commercially available ELS instrumentation will directly provide zeta potential values. Aqueous suspensions are filled into a folded capillary cell and equilibrated at 25° C. for 120 seconds before measurement. Three measurements are taken per run and each sample is run twice. The average value and the variation between measurements can be reported.
Unless otherwise stated, reference to zeta potential is a reference to the zeta potential of a suspension of the particles in water at neutral pH (pH 7) at standard ambient temperature and pressure (SATP, 25° C. and 100 kPa).
Zetapotential measurements were conducted on a Malvern Zetasizer Nano ZSP system. Zetapotential was determined from the electrophoretic mobility using the Smoluchowski approximation. The samples (without dilution) were filled into a folded capillary cell and equilibrated at 25° C. for 120 s before measurement. Three measurements were taken per run and each sample was run twice. The average value and the variation between measurements were reported.

Series [3] is described as follows: Particle size analysis by laser diffraction (Malvern Mastersizer 3000). Type of series: physicochemical. As to conditions: water as dispersion medium. The protocol: Particle size can be determined by laser diffraction, for example using a Malvern Mastersizer 3000.
Particle size measurements were performed by laser diffraction using a Malvern Mastersizer 3000, with water as the dispersion medium. In cases where the particle size was not stable, HPMC and SDS were added to the water dispersant at a concentration of 0.038 mg/mL each to minimise variation between consecutive measurements. Precipitated drug suspensions were diluted by a factor of 5 with water prior to their introduction to the measurement vessel. An MMT control was treated by the conditions used during antisolvent precipitation before measuring its particles size. An obscuration rate of 7-10%, a stir rate of 2300 rpm, a 1 min pre-measurement delay (including 20 sec with 5% sonication power) were the conditions used during all size measurements. A refractive index of 1.55 and an absorption index of 0.01 were used for FF measurements. A refractive index of 1.55 and an absorption index of 0.1 were used for MMT measurements. Four measurements were taken per run and each sample was run twice. The D50 was reported for each size distribution and averaged across all measurements. Measurement variations were also reported.

Series [4] is described as follows: Drug loading of nanoparticles on carrier. To be noted: on the PA-MMT carrier (4.6 mg PA/g MMT). Type of series: physicochemical. The text has this: The drug loading in % w/w is the amount of drug in grams per 100 g of functionalised carrier particles. A high drug loading is beneficial for delivering a sufficient dose to a patient. In embodiments the composite has a drug loading of at least 2, 4, 6, 8, 9, 10, 15, 20, 30, 40 or 50% w/w. In embodiments the composite has a drug loading of no more than 100, 90, 80 or 70% w/w.
The drug loading (% w/w) can also be determined by dissolution testing whereby a known mass of dry drug loaded carrier particles is dissolved in a known volume of dissolution media. […] The concentration of drug in the dissolution media is measured by UV/Vis and/or HPLC spectroscopic methods until it stops increasing with time. The mass of drug present on the known mass of drug loaded carrier particles can thus be estimated and the drug loading in (% w/w) can be calculated.
Nanoparticles of both fenofibrate (FF) and mefenamic acid (MEF) were generated by antisolvent precipitation. An organic solution of FF in ethanol (1 mL, 50 mg/mL) was quickly introduced by Eppendorf pipet to 10 mL antisolvent containing (a) water, (b) an MMT suspension in water (50 mg/mL, equilibrated for >2 hrs) or (c) a protamine-modified MMT suspension in water (50 mg/mL, 4.6-189.9 mg PA/g MMT, equilibrated for >2 hrs). Solutions/suspensions were maintained at 25° C. under rapid agitation (800 rpm) throughout the precipitation process. […]

Regarding Galatine B, the pI in series [1] is 5. For Avidin [Avidin (glycoprotein)], the pI in series [1] is given as 10.5. With `Cc1cccc(Nc2ccccc2C(=O)O)c1C` [mefenamic acid], in series [2], the zeta potential was −35.3 mV. Besides, the “particle size D50” value in series [3] is 0.84±0.05 μm. This compound came in with a drug loading in series [4] of 4.8%.

`C[C@H](N)C(=O)O` [Alanine]: the pI in series [1] is listed as 6.00. Consider Gelatine A, for which the pI in series [1] was 6-9.
